The text below walks through data of publication PMC7449170, “ATI-2173, a Novel Liver-Targeted Non-Chain-Terminating Nucleotide for Hepatitis B Virus Cure Regimens” (Antimicrobial Agents and Chemotherapy, 2020).

In one series the test system is HBV wild type (U95551). Nature of the series: Cross-resistance in transfected HepG2 cells, wild type. Format: cell-based, Hepatitis B virus.
In a further series the test system is HBV coreT33N. Nature of the series: microbe, parasite or virus in culture. Format: cell-based, Hepatitis B virus. The following applies: HepG2 cells, mutation coreT33N; read-out: EC50.
Series [1] has as its system HBV. Kind of series: HBV combination studies with ATI-2173 in primary human hepatocytes (MacSynergy). It is filed as cell-based, Hepatitis B virus. As to conditions: compound combined with ATI-2173, primary human hepatocytes; for Combination index: MacSynergy.
Series [2] in a line: Cell viability (CC50) in HepG2.2.15 cells. The following applies: human.
A further series has as its system HBV genotype D. Kind of series: Anti-HBV activity in HepG2.2.15 cells (extracellular HBV DNA by qPCR). Format: cell-based. The following applies: Hepatitis B virus. On the procedure: ATI-2173 was obtained from WuXi SynTheAll. Entecavir (positive control) was obtained from Shanghai Titan Scientific Co., Ltd. HepG2.2.15 cells (derived from human hepatoblastoma cell-like HepG2) contain four 5′ to 3′ tandem copies of the HBV genotype D and were provided by WuXi. HepG2.2.15 cells were cultured in Dulbecco’s modified Eagle medium (DMEM)/F12 (Invitrogen, 11330032) supplemented with 2% fetal bovine serum (FBS) (HyClone, SV30087.03), 1% L-glutamine, 1% minimum essential medium (MEM) nonessential amino acid solution (NEAA), and 1% penicillin-streptomycin solution. QIAamp 96 DNA blood kit was purchased from Qiagen (51162). […] Culture medium containing ATI-2173 or entecavir (serially diluted) was added to cells on day 2 and refreshed on day 5. ATI-2173 dilutions were: 0.0006, 0.0024, 0.0098, 0.0391, 0.1563, 0.6250, 2.5000, and 10.0000 μM. On day 8, cell culture supernatants were collected and DNA was extracted by the QIAamp 96 DNA blood kit. qPCR was run at 95°C for 10 min, then cycled at 95°C for 15 s, 60°C for 1 min, for a total of 40 cycles. HBV DNA content in the samples was calculated according to the standard curve and CT (cycle threshold of qPCR) values of a sample. Data were normalized for maximum and minimum copy numbers.
Background: Quantitative PCR measures a nucleic acid by following its amplification.

For series [3] the following is noted: in vivo, po; cited from earlier work.
Series [4] deals with HBV. The arrangement: method as in PMID 8834884, PMID 7786007, PMID 20516559. As to conditions: cell-based in vitro systems; read-out: Anti-HBV EC50; cited from earlier work.
A further series has as its system HBV DNA. The arrangement: method as in PMID 15239097. The following applies: patients, for 6 months following treatment; cited from earlier work.
The next series can be described thus: in vitro. The following applies: human.
The conditions of series [5]: human, in vivo; cited from earlier work.
In the next series the test system is HBV rtS202G+M204I+M250V. Nature of the series: microbe, parasite or virus in culture. It is filed as cell-based. The following applies: Hepatitis B virus, HepG2.
Series [6] relates to HBV genotypes A, B, C, D, E, F, G, and H. Kind of series: microbe, parasite or virus in culture. Format: cell-based. As to conditions: Hepatitis B virus, HepG2, read-out: IC50s, inhibition of HBV DNA across genotypes.
For another series, the system named is HBV rtS202G+M204I. Nature of the series: microbe, parasite or virus in culture. Format: cell-based. The following applies: Hepatitis B virus, HepG2.
Series [7] has as its system clevudine-resistant mutants. The following applies: mutants from viral break-through patients, predominantly M204I; cited from earlier work.
The next series concerns HBV coreP25A. Kind of series: microbe, parasite or virus in culture. Format: cell-based, Hepatitis B virus. As to conditions: HepG2 cells, mutation coreP25A; read-out: EC50.
The subject of another series is HBV rtV173L+M204I. Kind of series: microbe, parasite or virus in culture. The following applies: Hepatitis B virus, HepG2. Format: cell-based.
Another series concerns HBV rtM204V. Kind of series: microbe, parasite or virus in culture. It is filed as cell-based. As to conditions: Hepatitis B virus, HepG2.
The test system of a further series is HBV rtM204I. Nature of the series: microbe, parasite or virus in culture. Format: cell-based. The following applies: Hepatitis B virus, HepG2.
For another series, the system named is HBV rtN236T. Kind of series: microbe, parasite or virus in culture. It is filed as cell-based. As to conditions: Hepatitis B virus, HepG2.
In the next series the test system is HBV rtL180M+M204V. Kind of series: microbe, parasite or virus in culture. It is filed as cell-based. The following applies: Hepatitis B virus, HepG2.
The subject of the next series is HBV rtA181V. Nature of the series: microbe, parasite or virus in culture. The following applies: Hepatitis B virus, HepG2. It is filed as cell-based.

Read-outs that look alike come from different tables or passages of the source.

Description for in vitro: HK-2 human kidney cells were obtained from ATCC (Manassas, VA) and cultured in Gibco Keratinocyte serum-free medium (Thermo Fisher Scientific, Waltham, MA) supplemented with 10% FBS (Peak Serum, Wellington, CO). Human skeletal muscle cells were obtained from Lonza (Walkersville, MD) and cultured in SkGM-2 skeletal muscle cell growth medium-2 (Lonza). Both HK-2 and skeletal muscle cells were cultured humidified at 37°C and 5% CO2. Cryopreserved human primary hepatocytes and medium were received from Lonza. Cryopreserved iCell cardiomyocytes and cardiomyocyte medium were purchased from Stem Cell Technologies (Vancouver, BC, Canada). Cryopreserved human bone marrow mononuclear cells were purchased from Lonza with HemaTox Myeloid medium purchased from [sequence] […] All cryopreserved cells (human primary hepatocytes, iCell cardiomyocytes, and human bone marrow mononuclear cells) were stored in vapor phase liquid nitrogen until the day of plating. […] Serial dilutions of compounds in DMSO were as follows: 100, 10, 1, 0.1, 0.01, 0.001, 0.0001, and 0.00001 μM (final concentration of DMSO in medium was 0.5%).
HK-2 and skeletal muscle cells were seeded into 96-well plates at 5,000 cells/well and incubated overnight at 37°C and 5% CO2. Human hepatocytes were thawed, diluted in hepatocyte plating medium (Lonza) and seeded into a 96-well, collagen-coated plates at 2.5 × 10^4 cells/well. Hepatocytes were incubated for 6 h at 37°C in 5% CO2, then the medium was aspirated and replaced with hepatocyte culture medium at 50 μl/well, and finally incubated overnight. The iCell cardiomyocytes were thawed, suspended in iCell thawing/plating medium, and plated at 4 × 10^4 cells/well in a gelatin-coated 96-well plate. iCells were incubated for 2 days at 37°C in 7% CO2. […]
Following incubation, cells were dosed and incubated for 72 h at 37°C and 5% CO2. Following incubation, the endpoint cell viability CellTiter-Glo 2.0 assay (Promega, San Luis Obispo, CA) was performed and luminescence data collected on a Synergy 4 plate reader (Biotek, Winooski, VT). […]

As to `COc1ccccc1/C(Br)=C(\NC(=O)c1ccc([N+](=O)[O-])cc1)C(=O)N1CCCCC1` [AT-130], the EC50 in the series on HBV wild type (U95551) is 246 nM; in the series with HBV coreT33N, greater than 10 µM.
Take `Nc1ncnc2c1ncn2CCOCP(=O)(O)O` [Adefovir]: in the series with HBV [1], the Combination effect entry is recorded as “Minor synergism (25 to 50 is considered minor synergism)” and the Combination index worked out at 32.85.
Compound `Cc1cn([C@H]2O[C@@H](CO)[C@H](O)[C@H]2F)c(=O)[nH]c1=O` [Clevudine, 1-(2-fluoro-5-methyl-β,L-arabinofuranosyl) uracil] returned a CC50 in series [2] (HepG2.2.15 cells) greater than 10 µM. Further, the half-maximal effective concentration (EC50) is 100 nM in the series on HBV genotype D (HepG2.2.15, read-out: EC50, extracellular HBV DNA) and roughly 100 nM with HBV [4]. For the same compound, in series [3], the “Plasma concentrations at effective doses” value is “up to 1 μM”. For the same compound, in the series on HBV DNA, the “Sustained viral suppression, reduction from baseline” value is given as roughly 2 log10. For the same compound, the CC50 at 72 h in the series “in vitro” is greater than 100 µM. Moreover, in series [5], the “Myopathy on long-term exposure” value is listed as “reversible proximal myopathy symptoms emerged”.
With `C=C1[C@H](CO)[C@@H](O)C[C@@H]1n1cnc2c(=O)[nH]c(N)nc21` [Entecavir], the EC50 in the series on HBV wild type (U95551) (Hepatitis B virus) is 3 nM; with HBV rtS202G+M204I+M250V, 21 µM; with HBV rtS202G+M204I, 9.96 µM; with HBV genotype D (HepG2.2.15 cells, control compound, read-out: EC50, extracellular HBV DNA), 0.6 nM. Moreover, the IC50 in series [6] fell in the range of 0.5 to 2.2 nM. The compound also had a CC50 in series [2] greater than 0.05 µM. The Combination effect entry in the series on HBV [1] is listed as “Minor synergism (25 to 50 is considered minor synergism)”. For the same compound, the Combination index with HBV [1] is given as 38.62. Besides, the “Activity against clevudine-resistant mutants” value in [7] is “not”.
For `CCOC(=O)C1=C(CN2CCOCC2)NC(c2nccs2)=NC1c1ccc(F)cc1Br` (stereo not shown) [GLS4], the EC50 in the series with HBV wild type (U95551) is 15 nM; in the series with HBV coreT33N, 3.08 µM; in the series on HBV coreP25A, 295 nM. For the same compound, the Combination effect entry in the series on HBV [1] is “Additive (A combination index of <25 is considered additive)”. Further, the Combination index with HBV [1] turned out to be 7.59.
For `Nc1ccn([C@@H]2CS[C@H](CO)O2)c(=O)n1` [Lamivudine, reference compound], the EC50 is greater than 10 µM in the series on HBV rtV173L+M204I; 3.51 µM in the series on HBV rtM204V; 96 nM in the series with HBV wild type (U95551) (Hepatitis B virus); greater than 10 µM with HBV rtM204I; 130 nM in the series on HBV rtN236T; greater than 10 µM with HBV rtL180M+M204V. In the series on HBV rtA181V, a half-maximal effect (EC50) was put at 210 nM. Also, the Combination effect entry with HBV [1] was “Additive (A combination index of <25 is considered additive)”. The Combination index in the series on HBV [1] was −5.86.
`C[C@H](Cn1cnc2c(N)ncnc21)OCP(=O)(O)O` [Tenofovir]: in the series on HBV [1], the Combination effect entry was “Additive (A combination index of <25 is considered additive)” and the Combination index is on record as 8.56. The “Activity against clevudine-resistant mutants” value in series [7] is “active”.

The EC50 is the concentration at which the effect is half-maximal.
